From US9890175B2, “Taxane compound, and preparation method and use thereof” (JIANGSU TASLY DIYI PHARMACEUTICAL CO., LTD., priority 2013, dated 2018)

Assays:
Format in all cases: cell-based
[1] = tested on: breast cancer cell line MCF-7; test: IC50 on breast cancer cell line MCF-7; settings: Homo sapiens, MCF7, 72 h, read-out: MCF-7 (IC50, nM)
[2] = tested on: Du145 prostate cancer; test: MTT proliferation inhibition, Du145; settings: Homo sapiens, DU-145, read-out: Proliferation inhibition rate, DU145 Prostate cancer
Source text: (§1) 1. Cytotoxicity Assay Using Human Tumor Cell Lines
(§2) Paclitaxel was used as the positive drug.

[3] = tested on: HL-60 leukemia; test: MTT proliferation inhibition, HL-60; settings: Homo sapiens, HL-60, read-out: Proliferation inhibition rate, HL60 Leukemia
Source text: as §1, §2

[4] = tested on: K562 leukemia; test: MTT proliferation inhibition, K562; settings: Homo sapiens, K562, read-out: Proliferation inhibition rate, K562 Leukemia
Source text: as §1, §2

[5] = tested on: HT-29 colon cancer; test: MTT proliferation inhibition, HT-29; settings: Homo sapiens, HT-29, read-out: Proliferation inhibition rate, HT29 Colon cancer
Source text: as §1, §2

[6] = tested on: HCT 116 colon cancer; test: MTT proliferation inhibition, HCT 116; settings: Homo sapiens, HCT-116, read-out: Proliferation inhibition rate, HCT 116 Colon cancer
Source text: as §1, §2

[7] = tested on: Hela cervical cancer; test: MTT proliferation inhibition, HeLa; settings: Homo sapiens, read-out: Proliferation inhibition rate, HeLa Uterin cancer
Source text: as §1, §2

With `CO[C@H]1C[C@H]2OC[C@@]2(OC(C)=O)[C@H]2[C@H](OC(=O)c3ccccc3)[C@]34OC(=O)O[C@H]3[C@H](OC(=O)[C@H](O)[C@@H](NC(=O)OC(C)(C)C)c3ccccc3)C(C)=C([C@@H](OC(=O)N(C)C)C(=O)[C@]12C)C4(C)C` [PCMI-08] the IC50 [1] was 7.93 ± 0.14 nM, the inhibition at 1 µM [2] was 86.7% and the inhibition at 1 µM [3] was 96.8%. It also gave an inhibition at 1 µM [4] of 90.8%, an inhibition at 1 µM [5] of 81.7% and an inhibition at 1 µM [6] of 58.7%. It also gave an inhibition at 1 µM [7] of 97.3%.
